The values that follow come from patent CN111517978A, “环己烯基-dl-天门冬氨酸衍生物及其制备方法、组合物与用途” (Zhongshan Wanhan Pharmaceutical Co ltd, priority 2020, dated 2020).

SMILES strings stand for the structures.

Common to all, as to assay type: cell-based
What all share (conditions): component A (XP or YS) alone

Experiment [1] has as its system Micrococcus lysodeikticus 2665 (溶壁微球菌2665). Put plainly: Antibacterial action (MIC, FICI) against Micrococcus lysodeikticus 2665 (Table 4).
Experiment [2] relates to Serratia marcescens IFO 3736 (黏质沙雷氏菌IFO 3736). In words: Antibacterial action (MIC, FICI) against Serratia marcescens IFO 3736 (Table 10).
The test system of experiment [3] is Providencia stuartii 57 (斯氏普罗威登斯菌57). Put plainly: Antibacterial action (MIC, FICI) against Providencia stuartii 57 (Table 12).
Experiment [4] concerns Streptococcus intermedius ATCC27335 (中间链球菌ATCC27335). In words: Antibacterial action (MIC, FICI) against Streptococcus intermedius ATCC27335 (Table 20).
Experiment [5] relates to Bacteroides fragilis ATCC25285 (脆弱拟杆菌ATCC25285). In words: Antibacterial action (MIC, FICI) against Bacteroides fragilis ATCC25285 (Table 26).
For experiment [6], the system named is Shigella flexneri 2aEW-10 (福氏志贺氏菌2aEW-10). Put plainly: Antibacterial action (MIC, FICI) against Shigella flexneri 2aEW-10 (Table 15).
In experiment [7] the test system is Propionibacterium acnes ATCC11828 (痤疮丙酸杆菌ATCC11828). In words: Antibacterial action (MIC, FICI) against Propionibacterium acnes ATCC11828 (Table 21).
Experiment [8] has as its system Escherichia coli ATCC25922 (大肠杆菌ATCC25922). Put plainly: Antibacterial action (MIC, FICI) against Escherichia coli ATCC25922 (Table 7).
Experiment [9] deals with Stenotrophomonas maltophilia NCTC 13637 (嗜麦芽窄食单胞菌NCTC 13637). Put plainly: Antibacterial action (MIC, FICI) against Stenotrophomonas maltophilia NCTC 13637 (Table 18).
Experiment [10] concerns Clostridium perfringens ATCC13124 (产气荚膜梭状芽孢杆菌ATCC13124).
In experiment [11] the test system is Klebsiella pneumoniae NCTC 9632 (肺炎克雷伯菌NCTC 9632). In words: Antibacterial action (MIC, FICI) against Klebsiella pneumoniae NCTC 9632 (Table 9).

Regarding `CCOC(=O)C1=C[C@@H](OC(CC)CC)[C@H](NC(C)=O)[C@H](N)C1` [化合物9S, 乙基(3R,4R,5R)-4-乙酰氨基-5-氨基-3-(戊-3-基氧基)环己-1-烯-1-羧酸酯], the MIC_A in experiment [1] was 462 ng/mL; in experiment [2], 864 ng/mL; in [3], 440 ng/mL; in experiment [4] it was 410 ng/mL; in experiment [5], 316 ng/mL.

Regarding `CCC(CC)O[C@@H]1C=C(C(=O)O)C[C@H](N)[C@H]1NC(C)=O` [化合物10S, (3R,4R,5S)-4-乙酰氨基-5-氨基-3-(戊-3-基氧基)环己-1-烯-1-羧酸], the figures for the MIC_A in [6], in experiment [7] and in experiment [5] were 671 ng/mL, 737 ng/mL and 484 ng/mL, respectively.

With `CCOC(=O)C1=C[C@H](OC(CC)CC)[C@H](NC(CC(=O)O)C(=O)O)[C@@H](NC(C)=O)C1` (mixture of isomers) [化合物18P, ((1R,2S,6S)-6-乙酰氨基-4-(乙氧基羰基)-2-(戊-3-基氧基)环己-3-烯-1-基)-DL-天门冬氨酸], the MIC_A in experiment [1] is 6 ng/mL; in experiment [2], 53 ng/mL; in experiment [3] it was 22 ng/mL; in experiment [4], 27 ng/mL; in [5] it was 17 ng/mL.

Consider `CC(=O)N[C@H]1[C@H](O)C=C(C(=O)O)C[C@@H]1NC(CC(=O)O)C(=O)O` (mixture of isomers) [化合物15P, ((1S,5R,6R)-6-乙酰氨基-3-羧基-5-羟基环己-3-烯-1-基)-DL-天门冬氨酸], for which the MIC_A in [8] amounted to 15 ng/mL; in experiment [6], 3 ng/mL; in experiment [9] it was 24 ng/mL; in [10] it was 47 ng/mL; in [5], 24 ng/mL.

`CC(=O)N[C@H]1[C@H](O)C=C(C(=O)O)C[C@@H]1N` [化合物15S, (3R,4R,5S)-4-乙酰氨基-5-氨基-3-羟基环己-1-烯-1-羧酸]: the MIC_A in experiment [8] was determined as 354 ng/mL; in [6] it was 303 ng/mL; in [9], 1138 ng/mL; in experiment [10] it was 681 ng/mL; in experiment [5] it was 730 ng/mL.

For `CCC(CC)O[C@@H]1C=C(C(=O)OC)C[C@H](N)[C@H]1NC(C)=O` [化合物3S, 甲基(3R,4R,5S)-4-乙酰氨基-5-氨基-3-(戊-3-基氧基)环己-1-烯-1-羧酸酯], the MIC_A in [11] is 424 ng/mL; in experiment [2], 456 ng/mL; in experiment [5], 362 ng/mL.

With `CCOC(=O)C1=C[C@@H](OC(CC)CC)[C@H](N)[C@@H](N=[N+]=[N-])C1` [化合物21S, 乙基(3R,4R,5S)-4-氨基-5-叠氮基-3-(戊-3-基氧基)环己-1-烯-1-羧酸酯], the MIC_A in experiment [1] came to 407 ng/mL; in experiment [11] it was 613 ng/mL; in experiment [6], 533 ng/mL; in experiment [10], 884 ng/mL; in experiment [5], 375 ng/mL.

Take `CCOC(=O)C1=C[C@@H](OC(CC)CC)[C@@H](NC(C)=O)[C@H](NC(CC(=O)O)C(=O)O)C1` (mixture of isomers) [化合物5P, ((1R,5R,6S)-6-乙酰氨基-3-(乙氧基羰基)-5-(戊-3-基氧基)环己-3-烯-1-基)-DL-天门冬氨酸]: the MIC_A in [11] is recorded as 17 ng/mL; in [6] it was 24 ng/mL; in [7] it was 15 ng/mL; in [5] it was 20 ng/mL.

With `CCOC(=O)C1=C[C@@H](OC(CC)CC)[C@H](NC(CC(=O)O)C(=O)O)[C@@H](N=[N+]=[N-])C1` (mixture of isomers) [化合物21P, ((1R,2R,6S)-6-叠氮基-4-(乙氧基羰基)-2-(戊-3-基氧基)环己-3-烯-1-基)-DL-天门冬氨酸], the MIC_A came to 13 ng/mL in [1]; 15 ng/mL in [11]; 17 ng/mL in [6]; 56 ng/mL in [10]; 13 ng/mL in experiment [5].

With `CCC(CC)O[C@@H]1C=C(C(=O)OC)C[C@H](NC(CC(=O)O)C(=O)O)[C@H]1NC(C)=O` (mixture of isomers) [化合物3P, ((1S,5R,6R)-6-乙酰氨基-3-(甲氧基羰基)-5-(戊-3-基氧基)环己-3-烯-1-基)-DL-天门冬氨酸], the MIC_A came to 22 ng/mL in experiment [11], 11 ng/mL in [2] and 11 ng/mL in experiment [5].

As to `CCOC(=O)C1=C[C@H](OC(CC)CC)[C@@H](N)[C@H](N)C1` [化合物17S, 乙基(3S,4S,5R)-4,5-二氨基-3-(戊-3-基氧基)环己-1-烯-1-羧酸酯], the MIC_A in [8] is given as 683 ng/mL; in experiment [6], 929 ng/mL; in experiment [9], 447 ng/mL; in experiment [7] it was 969 ng/mL; in experiment [10] it was 684 ng/mL.

For the molecule `CCOC(=O)C1=C[C@@H](OC(CC)CC)[C@@H](NC(C)=O)[C@H](N)C1` [化合物5S, 乙基(3R,4S,5R)-4-乙酰氨基-5-氨基-3-(戊-3-基氧基)环己-1-烯-1-羧酸酯], the MIC_A in experiment [11] is listed as 507 ng/mL; in [6] it was 483 ng/mL; in experiment [7], 919 ng/mL; in [5], 323 ng/mL.

As for `CCC(CC)O[C@@H]1C=C(C(=O)O)C[C@H](NC(CC(=O)O)C(=O)O)[C@H]1NC(C)=O` (mixture of isomers) [化合物10P, ((1S,5R,6R)-6-乙酰氨基-3-羧基-5-(戊-3-基氧基)环己-3-烯-1-基)-DL-天门冬氨酸], the MIC_A in experiment [6] came out at 25 ng/mL; in experiment [7], 35 ng/mL; in experiment [5], 6 ng/mL.

For the molecule `CCOC(=O)C1=C[C@@H](OC(CC)CC)[C@H](NC(C)=O)[C@H](NC(CC(=O)O)C(=O)O)C1` (mixture of isomers) [化合物9P, ((1R,5R,6R)-6-乙酰氨基-3-(乙氧基羰基)-5-(戊-3-基氧基)环己-3-烯-1-基)-DL-天门冬氨酸], the MIC_A turned out to be 18 ng/mL in experiment [1]; 49 ng/mL in experiment [2]; 29 ng/mL in experiment [3]; 9 ng/mL in [4]; 16 ng/mL in experiment [5].

As to `CCOC(=O)C1=C[C@H](OC(CC)CC)[C@H](N)[C@@H](NC(C)=O)C1` [化合物18S, 乙基(3S,4R,5S)-5-乙酰氨基-4-氨基-3-(戊-3-基氧基)环己-1-烯-1-羧酸酯], the MIC_A in [1] worked out at 418 ng/mL; in [2], 992 ng/mL; in [3], 959 ng/mL; in experiment [4], 1137 ng/mL; in [5], 305 ng/mL.
